Columns and labels:
[1] = molecular target: T1, M2 muscarinic receptor subtype (Rattus norvegicus, UniProt P10980); assay: biochemical; format: binding
T1 construct: Submandibular glands and heart were isolated and placed in ice cold homogenising buffer; from tissue; host or cells: rat heart membrane homogenate
T1 sequence (P10980 1-466): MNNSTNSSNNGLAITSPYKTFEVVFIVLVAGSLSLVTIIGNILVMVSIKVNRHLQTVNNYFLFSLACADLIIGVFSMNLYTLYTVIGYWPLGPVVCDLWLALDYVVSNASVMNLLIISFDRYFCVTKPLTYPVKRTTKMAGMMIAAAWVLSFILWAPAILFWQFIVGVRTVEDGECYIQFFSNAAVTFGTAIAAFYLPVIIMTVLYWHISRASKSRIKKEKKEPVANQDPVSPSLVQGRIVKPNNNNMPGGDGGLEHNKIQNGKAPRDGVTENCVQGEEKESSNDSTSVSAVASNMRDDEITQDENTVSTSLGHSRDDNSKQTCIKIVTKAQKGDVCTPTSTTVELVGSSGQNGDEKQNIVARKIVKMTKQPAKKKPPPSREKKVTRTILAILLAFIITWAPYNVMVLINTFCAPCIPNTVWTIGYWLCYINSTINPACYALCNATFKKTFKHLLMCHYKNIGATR

[2] = molecular target: T2, M3 muscarinic receptor subtype (Rattus norvegicus, UniProt P08483); assay: biochemical; format: binding
T2 construct: Submandibular glands and heart were isolated and placed in ice cold homogenising buffer; from tissue; host or cells: rat submandibular gland membrane homogenate
T2 sequence (P08483 whole entry): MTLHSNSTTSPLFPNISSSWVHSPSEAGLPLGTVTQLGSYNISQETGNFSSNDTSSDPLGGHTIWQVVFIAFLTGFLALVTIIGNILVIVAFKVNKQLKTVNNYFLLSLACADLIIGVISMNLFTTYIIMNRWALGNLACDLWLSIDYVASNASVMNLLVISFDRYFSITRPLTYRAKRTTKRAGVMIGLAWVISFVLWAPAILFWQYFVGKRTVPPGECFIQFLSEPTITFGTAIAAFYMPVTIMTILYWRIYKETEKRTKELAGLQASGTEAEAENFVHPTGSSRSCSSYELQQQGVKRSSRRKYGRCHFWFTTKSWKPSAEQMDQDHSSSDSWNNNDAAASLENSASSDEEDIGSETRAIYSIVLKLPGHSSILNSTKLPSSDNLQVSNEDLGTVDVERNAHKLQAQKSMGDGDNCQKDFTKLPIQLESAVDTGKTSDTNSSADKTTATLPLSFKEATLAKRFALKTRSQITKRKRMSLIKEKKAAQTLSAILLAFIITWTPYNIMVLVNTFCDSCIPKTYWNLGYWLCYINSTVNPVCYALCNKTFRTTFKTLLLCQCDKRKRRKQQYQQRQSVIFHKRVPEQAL

isolated rat bladder = assay: tissue or blood; format: cell-based; details: read-out: Functional Assay pkB

SMILES | Ki [1] [µM] | Ki [2] [µM] | Kb (isolated rat bladder) [µM]
O=C(N[C@H]1[C@@H]2CN(CCc3ccc4c(c3)OCO4)C[C@@H]21)[C@](O)(c1ccccc1)C1CCC(F)(F)C1 (stereo partly drawn) [Compound 9, (2R)-(1α, 5α, 6α)-6-N-[3-(2-(3,4-methylenedioxyphenyl)ethyl]-3-azabicyclo[3.1.0]-hexyl]-2-[(1R or 1S)-3,3-difluorocyclopentyl]-2-hydroxy-2-phenylacetamide] | 4.27 | 0.0794 | 
CC(C)=CCCN1C[C@@H]2[C@H](C1)[C@H]2NC(=O)[C@@](O)(c1ccccc1)C1CCC(F)(F)C1 (single isomer, unassigned) [Compound 13B, (2S)-(1α, 5α, 6α)-6-N-[3-(4-methyl-3-pentenyl)-3-azabicyclo[3.1.0]-hexyl-2-[(1R or 1S)-3,3-difluorocyclopentyl]-2-hydroxy-2-phenylacetamide] | > 10 | 2 | 0.0676
O=C(N[C@H]1[C@@H]2CN(CCc3ccc4c(c3)OCO4)C[C@@H]21)[C@@](O)(c1ccccc1)C1CCC(F)C1 (stereo partly drawn) [Compound 11, (2S)-(1α, 5α, 6α)-6-N-[3-(2-(3,4-methylenedioxyphenyl)ethyl]-3-azabicyclo[3.1.0]-hexyl]-2-[(1R or 1S, 3R or 3S)-3-fluorocyclopentyl]-2-hydroxy-2-phenylacetamide] | 6.31 | 0.0631 | 
CC(C)=CCCN1CC2C(C1)C2NC(=O)C(O)(c1ccccc1)C1CCC(F)(F)C1 (single isomer, unassigned) [Compound 14, (2R)-(1α, 5α, 6α)-6-N-[3-(4-methyl-3-pentenyl)-3-azabicyclo[3.1.0]-hexyl]-2-[(1R or 1S)-3,3-difluorocyclopentyl]-2-hydroxy-2-phenylacetamide] | > 10 | 1.58 | 0.132

From patent US7560479B2 (priority 2003, dated 2009)
